≈ marks a conversion by molar mass, not a printed value. Read-outs that look alike come from different tables or passages of the source.
Experiments:
Type in all cases: cell-based
[1] = tested on: pancreatic cancer cell line (PACA2); test: cells; details: Homo sapiens, PaCa-2, 48 h; for mortality at 100 µg/mL: 100 μg/mL
[2] = tested on: colon cancer (HCT116); test: cells; details: Homo sapiens; for mortality at 100 µg/mL: HCT-116, 48 h, 100 μg/mL
[3] = tested on: Bacillus mycoides; test: microbe, parasite or virus in culture
[4] = tested on: hepatocellular carcinoma cell line (HePG2); test: cells; details: Homo sapiens, 48 h; for mortality at 100 µg/mL: 100 μg/mL
[5] = tested on: prostate cancer (PC3); test: cells; details: Homo sapiens, 48 h; for mortality at 100 µg/mL: 100 μg/mL
[6] = tested on: human lung carcinoma (A549); test: cells; details: for mortality at 100 µg/mL: A549, 48 h, 100 μg/mL
[7] = tested on: Escherichia coli; test: Agar well diffusion, E. coli
[8] = tested on: osteosarcoma cell line (HOS); test: cells; details: Homo sapiens, 48 h; for mortality at 100 µg/mL: 100 μg/mL
[9] = tested on: Candida albicans; test: Agar well diffusion, C. albicans
[10] = tested on: skin cancer (A431); test: cells; details: Homo sapiens, A-431, 100 μg/mL, 48 h
[11] = in vitro; details: human, BJ1 normal skin fibroblast cells, 100 μg/mL
[12] = tested on: Candida albicans; test: MIC by serial dilution (agar wells), C. albicans
[13] = tested on: Escherichia coli; test: MIC by serial dilution (agar wells), E. coli
[14] = tested on: Bacillus mycoides; test: microbe, parasite or virus in culture; remark: listed apart in the source
[15] = Bacillus mycoides, read-out: Inhibition zones diameter
[16] = Escherichia coli, read-out: Inhibition zones diameter
[17] = Candida albicans, read-out: Inhibition zones diameter
[18] = 0.00488 mg/mL, 150 µL in DMSO, 15 mm agar well
[19] = 0.00975 mg/mL, 150 µL in DMSO, 15 mm agar well
[20] = 0.0195 mg/mL, 150 µL in DMSO, 15 mm agar well
[21] = 0.0391 mg/mL, 150 µL in DMSO, 15 mm agar well
[22] = 0.0781 mg/mL, 150 µL in DMSO, 15 mm agar well
[23] = 0.1563 mg/mL, 150 µL in DMSO, 15 mm agar well
[24] = 0.3125 mg/mL, 150 µL in DMSO, 15 mm agar well
[25] = 0.625 mg/mL, 150 µL in DMSO, 15 mm agar well
[26] = 1.25 mg/mL, 150 µL in DMSO, 15 mm agar well
[27] = 2.50 mg/mL, 150 µL in DMSO, 15 mm agar well
[28] = 5.00 mg/mL, 150 µL in DMSO, 15 mm agar well
[29] = 10.0 mg/mL, 150 µL in DMSO, 15 mm agar well
[30] = read-out: Minimum inhibition concentration (MIC)

Compound: Cc1ccc(NC(=O)Nc2ccccc2C(F)(F)F)cc1 [Compound 17, 1-(p-Tolyl)-3-[2-(trifluoromethyl)phenyl]urea]
- mortality at 100 µg/mL [1]: > 50%
- mortality at 100 µg/mL [2]: 7.5 ± 0.92%
- zone of inhibition at 10000 µg/mL [3, 15]: 18 mm
- mortality at 100 µg/mL [4]: 71.2 ± 1.45%
- IC50 ([4]; MTT): 199.3 ± 0.82 µM
- mortality at 100 µg/mL [5]: > 50%
- mortality at 100 µg/mL [6]: 7.3 ± 0.35%
- zone of inhibition at 10000 µg/mL [7, 16]: 16 ± 0.54 mm
- mortality at 100 µg/mL [8]: > 50%
- zone of inhibition at 10000 µg/mL [9, 17]: 15 ± 0.42 mm
- mortality at 100 µg/mL [10]: 3.1 ± 1.14%

Compound: CC1(C)S[C@@H]2[C@H](NC(=O)[C@H](N)c3ccccc3)C(=O)N2[C@H]1C(=O)O [Ampicillin, reference compound]
- zone of inhibition at 10 µg/disc [3, 15]: 12 ± 0.93 mm
- zone of inhibition at 10 µg/disc ([7]; Escherichia coli, E. coli, reference antibiotic 10 mcg, read-out: Inhibition zones diameter): 20 ± 1.05 mm
- zone of inhibition at 10 µg/disc ([9]; Candida albicans, C. albicans, reference antibiotic 10 mcg, read-out: Inhibition zones diameter): 14 ± 0.25 mm

Compound: Cc1ccc(NC(=O)Nc2ccc(OC(F)(F)F)cc2)cc1 [Compound 14, 1-(p-Tolyl)-3-[4-(trifluoromethoxy)phenyl]urea]
- mortality at 100 µg/mL [1]: 47.2 ± 1.47%
- mortality at 100 µg/mL [2]: 5.6 ± 0.47%
- zone of inhibition at 10000 µg/mL [3, 15]: 15 ± 0.25 mm
- mortality at 100 µg/mL [4]: 65.3 ± 1.44%
- mortality at 100 µg/mL [5]: 45.3 ± 1.28%
- mortality at 100 µg/mL [6]: 38.5 ± 1.41%
- zone of inhibition at 10000 µg/mL [7, 16]: 17 ± 0.81 mm
- mortality at 100 µg/mL [8]: 100%
- IC50 ([8]; MTT): 61.6 ± 0.81 µM
- zone of inhibition at 10000 µg/mL [9, 17]: 17 ± 0.27 mm
- mortality at 100 µg/mL [10]: 2.3 ± 0.66%

Compound: Cc1ccc(S(=O)(=O)NC(=O)Nc2ccccc2C(F)(F)F)cc1 [Compound 11, 4-Methyl-N-[(2-{trifluoromethyl}phenyl)carbamoyl]benzenesulfonamide]
- IC50 ([1]; MTT): 80.7 µM
- mortality at 100 µg/mL [2]: > 75%
- IC50 ([2]; HCT-116, MTT, 48 h): 161.6 ± 0.24 µM
- mortality at 48 h, 100 µg/mL [11]: 19.2 ± 0.57%
- Inhibition zones diameter ([3]; B. mycoides, 200 μL of 10 mg/mL in DMSO in 15 mm holes, overnight 37 °C): 31 ± 0.52 mm
- zone of inhibition at 10000 µg/mL [3, 15]: 31 mm
- zone of inhibition at 4.88 µg/mL [12, 18]: 0 mm
- zone of inhibition at 9.75 µg/mL [12, 19]: 0 mm
- zone of inhibition at 19.5 µg/mL [12, 20]: 0 mm
- zone of inhibition at 39.1 µg/mL [12, 21]: 0 mm
- zone of inhibition at 78.1 µg/mL [12, 22]: 16 mm
- zone of inhibition at 156.3 µg/mL [12, 23]: 17 mm
- zone of inhibition at 312.5 µg/mL [12, 24]: 20 mm
- zone of inhibition at 625 µg/mL [12, 25]: 22 mm
- zone of inhibition at 1250 µg/mL [12, 26]: 24 mm
- zone of inhibition at 2500 µg/mL [12, 27]: 25 mm
- zone of inhibition at 5000 µg/mL [12, 28]: 26 mm
- zone of inhibition at 10000 µg/mL [12, 29]: 28 mm
- MIC [12, 30]: 78.1 µg/mL (≈ 218 µM)
- IC50 ([5]; MTT): 114.7 ± 0.21 µM
- IC50 ([6]; MTT, 48 h): 149.3 ± 0.23 µM
- zone of inhibition at 4.88 µg/mL [13, 18]: 0 mm
- zone of inhibition at 9.75 µg/mL [13, 19]: 0 mm
- zone of inhibition at 19.5 µg/mL [13, 20]: 0 mm
- zone of inhibition at 39.1 µg/mL [13, 21]: 0 mm
- zone of inhibition at 78.1 µg/mL [13, 22]: 0 mm
- zone of inhibition at 156.3 µg/mL [13, 23]: 16 mm
- zone of inhibition at 312.5 µg/mL [13, 24]: 18 mm
- zone of inhibition at 625 µg/mL [13, 25]: 20 mm
- zone of inhibition at 1250 µg/mL [13, 26]: 22 mm
- zone of inhibition at 2500 µg/mL [13, 27]: 24 mm
- zone of inhibition at 5000 µg/mL [13, 28]: 28 mm
- zone of inhibition at 10000 µg/mL [13, 29]: 30 mm
- MIC [13, 30]: 156 µg/mL (≈ 436 µM)
- zone of inhibition at 10000 µg/mL [7, 16]: 27 ± 0.58 mm
- mortality at 100 µg/mL [8]: 44.2 ± 1.11%
- Inhibition zones diameter ([9]; C. albicans, 200 μL of 10 mg/mL in DMSO in 15 mm holes, overnight 37 °C): 32 ± 0.17 mm
- zone of inhibition at 10000 µg/mL [9, 17]: 32 mm
- zone of inhibition at 4.88 µg/mL ([14]; read-out: Inhibition zone): 0 mm
- zone of inhibition at 9.75 µg/mL ([14]; read-out: Inhibition zone): 0 mm
- zone of inhibition at 19.5 µg/mL ([14]; read-out: Inhibition zone): 0 mm
- zone of inhibition at 39.1 µg/mL ([14]; read-out: Inhibition zone): 15 mm
- zone of inhibition at 78.1 µg/mL ([14]; read-out: Inhibition zone): 16 mm
- zone of inhibition at 156.3 µg/mL ([14]; read-out: Inhibition zone): 16 mm
- zone of inhibition at 312.5 µg/mL ([14]; read-out: Inhibition zone): 17 mm
- zone of inhibition at 625 µg/mL ([14]; read-out: Inhibition zone): 17 mm
- zone of inhibition at 1250 µg/mL ([14]; read-out: Inhibition zone): 18 mm
- zone of inhibition at 2500 µg/mL ([14]; read-out: Inhibition zone): 22 mm
- zone of inhibition at 5000 µg/mL ([14]; read-out: Inhibition zone): 24 mm
- zone of inhibition at 10000 µg/mL ([14]; read-out: Inhibition zone): 27 mm
- MIC [14, 30]: 39.1 µg/mL (≈ 109 µM)
- mortality at 100 µg/mL [10]: 10.5 ± 1.13%

Compound: Colstin [reference compound]
- Inhibition zones diameter [3]: 0 mm
- Inhibition zones diameter ([7]; E. coli, reference antibiotic 10 mcg): 0 mm
- Inhibition zones diameter ([9]; C. albicans, reference antibiotic 10 mcg): 0 mm

Compound: COc1cc(NC(=O)Nc2ccc(C)cc2)cc(OC)c1 [Compound 16, 1-[3,5-Dimethoxyphenyl]-3-(p-tolyl)urea]
- mortality at 100 µg/mL [1]: > 50%
- mortality at 100 µg/mL [2]: 5.9 ± 0.78%
- zone of inhibition at 10000 µg/mL [3, 15]: 16 ± 0.97 mm
- mortality at 100 µg/mL [4]: 34.2 ± 0.13%
- mortality at 100 µg/mL [5]: 44.6 ± 0.25%
- mortality at 100 µg/mL [6]: 35.9 ± 0.7%
- zone of inhibition at 10000 µg/mL [7, 16]: 16 ± 0.35 mm
- mortality at 100 µg/mL [8]: > 50%
- zone of inhibition at 10000 µg/mL [9, 17]: 16 ± 0.95 mm
- mortality at 100 µg/mL [10]: 40.3 ± 1.22%
